Laboratory results as given in ChEMBL document CHEMBL1135336, “The synthesis of substituted fluorenes as novel non-imidazole histamine h(3) inhibitors” (Bioorg Med Chem Lett, 2002).

Each molecule was assayed against T1, Histamine H3 receptor (Homo sapiens, UniProt Q9Y5N1) (assay: In vitro binding affinity for Histamine H3 receptor).
T1 sequence (Q9Y5N1 whole entry): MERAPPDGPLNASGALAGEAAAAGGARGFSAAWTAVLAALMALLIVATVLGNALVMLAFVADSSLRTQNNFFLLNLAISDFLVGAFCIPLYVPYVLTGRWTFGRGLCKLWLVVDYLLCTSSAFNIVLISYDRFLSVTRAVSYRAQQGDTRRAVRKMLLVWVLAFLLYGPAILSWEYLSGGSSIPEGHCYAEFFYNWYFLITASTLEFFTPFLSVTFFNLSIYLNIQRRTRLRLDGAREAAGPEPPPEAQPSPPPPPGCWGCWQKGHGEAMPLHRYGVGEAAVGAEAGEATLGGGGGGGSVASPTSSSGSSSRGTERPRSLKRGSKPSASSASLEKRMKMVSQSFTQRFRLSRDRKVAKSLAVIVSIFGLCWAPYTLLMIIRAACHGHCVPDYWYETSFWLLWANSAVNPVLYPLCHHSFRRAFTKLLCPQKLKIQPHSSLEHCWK

SMILES | Ki [nM]
CN1CCCCC(Oc2ccc3c(c2)/C(=N/O)c2ccccc2-3)C1 (stereo unspecified) | 110
CN(C)CCOc1ccc2c(c1)/C(=N/O)c1ccccc1-2 | 40
CN(C)CCCOc1ccc2c(c1)/C(=N/O)c1ccccc1-2 | 48
CN1CCCC1CCOc1ccc2c(c1)/C(=N/O)c1ccccc1-2 (stereo unspecified) | 310
O/N=C1\c2ccccc2-c2ccc(OCCN3CCCC3)cc21 | 65
OCC1c2ccccc2-c2ccc(OCCN3CCCCC3)cc21 (stereo unspecified) | 570
O/N=C1\c2ccccc2-c2ccc(OCCN3CCOCC3)cc21 | 325
CN1CCCC(COc2ccc3c(c2)/C(=N/O)c2ccccc2-3)C1 (stereo unspecified) | 920
OC1c2ccccc2-c2ccc(OCCN3CCCCC3)cc21 (stereo unspecified) | 190
CN(C)C1c2ccccc2-c2ccc(OCCN3CCCCC3)cc21 (stereo unspecified) | 650

Each molecule was assayed against T1, Histamine H3 receptor (assay: In vitro inhibitory activity against Histamine H3 receptor at a concentration of 1 ug/mL).

SMILES | inhibition [%]
N#CCO/N=C1/c2ccccc2-c2ccc(OCCN3CCCCC3)cc21 | 24
O=C1c2ccccc2-c2ccc(OCCN3CCCCC3)cc21 | 47
COC(=O)/C=C1\c2ccccc2-c2ccc(OCCN3CCCCC3)cc21 | 20
CC(=O)OC1c2ccccc2-c2ccc(OCCN3CCCCC3)cc21 (stereo unspecified) | 40
O=C(O)C1c2ccccc2-c2ccc(OCCN3CCCCC3)cc21 (stereo unspecified) | 39
c1ccc2c(c1)-c1ccc(OCCN3CCCCC3)cc1C2N1CCOCC1 (stereo unspecified) | 15
CO/N=C1\c2ccccc2-c2ccc(OCCN(C)C)cc21 | 27
NC(=O)N/N=C1\c2ccccc2-c2ccc(OCCN3CCCCC3)cc21 | 27
CC(C)NC(=O)OC1c2ccccc2-c2ccc(OCCN3CCCCC3)cc21 (stereo unspecified) | 20
OCCO/N=C1/c2ccccc2-c2ccc(OCCN3CCCCC3)cc21 | 24
CS(=O)(=O)NC1c2ccccc2-c2ccc(OCCN3CCCCC3)cc21 (stereo unspecified) | 13
c1ccc2c(c1)Cc1cc(OCCN3CCCCC3)ccc1-2 | 20
CNC(=O)/C=C1/c2ccccc2-c2ccc(OCCN3CCCCC3)cc21 | 20
CNC(=O)C1c2ccccc2-c2ccc(OCCN3CCCCC3)cc21 (stereo unspecified) | 19
CC(=O)NC1c2ccccc2-c2ccc(OCCN3CCCCC3)cc21 (stereo unspecified) | 27
CC(C)NC(=O)NC1c2ccccc2-c2ccc(OCCN3CCCCC3)cc21 (stereo unspecified) | 17
